Tests used:
[1] = Cell proliferation assay (ATPlite) in a panel of NF1 related cell lines; assay type: cell-based, human and mouse; settings: 72 h; read-out: IC50 (concentration required for inhibition of cell proliferation by 50%)
Procedure: Several physiologically relevant cells or cell lines were employed to measure compound potency in cell proliferation assays. These cells include: (1) NF1-deficient human malignant peripheral nerve sheath tumor (MPNST) cells, (2) Nf1^−/− mouse embryonic Schwann cells, and (3) Nf1- and p53-deficient mouse cell. […] All the other cells are grown in DMEM with 10% fetal bovine serum (FBS).
Various concentrations of each compound/agent to be tested were added to the growing media and the cells were then cultured for 3 days. […] Viable cells were measured by detecting luminescence generated from reaction of ATPlite solution and the ATP in the cells.

[2] = test system: Fresh human dermal neurofibroma; test: Ex vivo tumor explant assay, histological score; assay type: cell-based; settings: compound added day 1, collected day 3, criterion “+” or more
Procedure: The efficacy of the compound/agent was tested in an ex vivo tumor explant model as follows. Fresh human dermal neurofibroma was cut into eight small pieces and cultured on standard cell culture plates with medium containing DMEM/F12, 10% FBS, heregulin and forskolin. The pieces were divided into treatment and control groups. Compound at different doses was added to the medium on day 1. No compound was added in the negative control group. All tumor pieces were collected on day 3 and processed for histology by formalin fixation and paraffin embedding. Tissue sections were cut and stained with hematoxylin-eosin for histological analysis. The histological analysis of the paired explant samples was conducted blindly. Three histological parameters were used to score the samples from “−” to “+++”: 1) overall tissue integrity; we evaluate tissue integrity by comparing the cellularity of treated samples to the negative control samples. The low cellularity area was defined as >30% less nucleus than the similar area on the control sample. The photograph of each sample at 40× under a bright field microscopy was take using MagnaFire digital camera (Optronics, USA) and stored in computer. The low cellularity areas in the pictures were measured using Photoshop and calculated as Length×Width, and then expressed as a percentage over the total area of the sample. Overall tissue integrity was scored using 0 to 2+ score. In short, good tissue integrity is scored 0 (<5%), 1+ indicates medium tissue integrity (5-25%), 2+ low tissue integrity (>25%). Only 2+ cases were regarded as positive “+” for the final total score; 2) cell death—slides were evaluated by bright field microscopy. At least 100 cells per view were counted. Cell death was scored semi-quantitatively using the 0 to 3+ score. The absence of condensed or fragmented nucleus is scored 0, 1+ indicates the lowest level of detectable cell death (<10%), 2+ moderate cell death ([…]), and 3+ high cell death (>30%). All 2+ and 3+ cases were regarded as positive “+” for the final total score; and 3) effect on vasculatures.—slides were evaluated by bright field microscopy. The effect on vasculature in treated samples was determined by comparing with the vasculatures in control negative samples. At least 20 vasculatures per sample were counted. Effect on vasculatures was scored semi-quantitatively using the […]. In short, absence or the lowest level of damaged vasculature is scored 0 (<5%), 1+ indicates of some damaged vasculature (5-25%), 2+ high (>25%). All 1+ and 2+ cases were regarded as positive “+” for the final total score. Final histological score was the sum of the scores of the above three parameters, expressed as “−” to “+++”. Any compound with a histological score of “+” or more will be potential good candidates for local treatment of neurofibromas.

[3] = test system: cutaneous neurofibromas; test: Proof-of-concept intralesional administration study in NF1 subjects; assay type: in vivo, human; settings: intralesional injection once weekly for 4 weeks, all controls showed no change
Excerpt: The study was a proof-of-concept, prospective, safety and efficacy study of the effect of intralesionally administered drugs given once a week to 3 target cutaneous neurofibromas for 4 consecutive weeks. Six subjects were enrolled. […] All subjects were from 18 to 65 years of age, inclusive. All subjects otherwise were in good health, or had stable concomitant medical conditions appropriately managed by a primary care physician. […] After screening and enrollment, all subjects received a defined volume (based on the size of the lesion) of intralesional drug once weekly into 3 target cutaneous neurofibromas that are 0.5 to 1.5 cm in diameter, inclusive, in its largest dimension. Each target cutaneous neurofibroma was different in size, with one 0.5 to 0.8 cm in diameter, a second between 0.81 to 1.2 cm in diameter, and a third 1.21 to 1.5 cm in diameter. Concomitantly, three control cutaneous neurofibromas found on the torso and/or appendages of the same range in sizes received sterile normal saline. All lesions prior to injection were locally anesthetized with lidocaine 1% and epinephrine 1:100,000. […] Assessment included the exact measured dimensions (in two axes) of the […] assessed lesions. […]

Row | Molecule | IC50 [1] [µM] | Final histological score (tissue integrity, cell death, effect on vasculatures) [2] | tumors injected showing partial or complete elimination of the dermal neurofibroma [3] [%]
1 | O=c1[nH]cc(F)c(=O)[nH]1 [5-fluorouracil] | ≤ 10 | + | –
2 | C=CCNC1=C2C[C@@H](C)C[C@H](OC)[C@H](O)[C@@H](C)/C=C(\C)[C@H](OC(N)=O)[C@@H](OC)/C=C\C=C(/C)C(=O)NC(=CC1=O)C2=O [17-AAG, 17-(Allylamino)-17-demethoxygeldanamycin] | ≤ 10 | + | –
3 | CC[C@@]1(O)C(=O)OCc2c1cc1n(c2=O)Cc2cc3ccccc3nc2-1 [Camptothecin] | ≤ 10 | – | –
4 | Nc1nc(Cl)nc2c1ncn2[C@H]1C[C@H](O)[C@@H](CO)O1 [Cladribine] | ≤ 10 | – | –
5 | O=C([O-])Cc1ccccc1Nc1c(Cl)cccc1Cl.[Na+] [Diclofenac] | – | + | 48
6 | C[C@H]1c2cccc(O)c2C(=O)C2=C(O)[C@]3(O)C(=O)C(C(N)=O)=C(O)[C@@H](N(C)C)[C@@H]3[C@@H](O)[C@@H]21.Cl [Doxycycline] | ≤ 10 | – | 89
7 | O=C(O[C@@H]1Cc2c(O)cc(O)cc2O[C@@H]1c1cc(O)c(O)c(O)c1)c1cc(O)c(O)c(O)c1 [EGCG, (−)-Epigallocatechin Gallate] | ≤ 10 | – | –
8 | CC1=C(/C=C/C(C)=C/C=C/C(C)=C/C(=O)Nc2ccc(O)cc2)C(C)(C)CCC1 [Fenretinide] | ≤ 10 | + | –
9 | COc1cc2ncnc(N3CCN(C(=S)NCc4ccc5c(c4)OCO5)CC3)c2cc1OC [KN2941, 4-(6.7-dimethoxy-4-quinazolinyl)-N-(3,4-methylenedioxybenzyl)-1-piperazinethiocarboxamide] | ≤ 10 | – | –
10 | O=c1cc(N2CCOCC2)oc2c(-c3ccccc3)cccc12 [LY294002, 2-(4-Morpholinyl)-8-phenyl-4H-1-benzopyran-4-one] | ≤ 10 | – | –
11 | COC(=O)Nc1nc2cc(C(=O)c3ccccc3)ccc2[nH]1 [Mebendazole] | ≤ 10 | + | –
12 | COc1cc([C@@H]2c3cc4c(cc3[C@H](O)[C@H]3COC(=O)[C@H]23)OCO4)cc(OC)c1OC [Podophyllotoxin] | ≤ 10 | + | –
13 | CCN(CC)CCNC(=O)c1c(C)[nH]c(/C=C2\C(=O)Nc3ccc(Cl)cc32)c1C [SU11652, 5-[(Z)-(5-Chloro-2-oxo-1,2-dihydro-3H-indol-3-ylidene)methyl]-N-[2-(diethylamino)ethyl]-2,4-dimethyl-1H-pyrrole-3-carboxamide] | ≤ 10 | – | –
14 | NC(=O)c1cn([C@@H]2O[C@H](CO)C(O)C2O)c2ncnc(N)c12 (stereo partly shown) [Sangivamycin] | ≤ 10 | + | –
15 | S=P(N1CC1)(N1CC1)N1CC1 [Thiotepa] | ≤ 10 | + | –
16 | CC(/C=C/C(=O)NO)=C\[C@@H](C)C(=O)c1ccc(N(C)C)cc1 [Tricostatin A] | ≤ 10 | + | –
17 | Nc1ncnc2c1ccn2[C@@H]1O[C@H](CO)[C@@H](O)[C@H]1O [Tubercidin] | ≤ 10 | + | –
18 | N#CC(=C(/N)Sc1ccccc1N)/C(C#N)=C(\N)Sc1ccccc1N [U0126, 1,4-Diamino-2,3-dicyano-1,4-bis(2-aminophenylthio)-butadiene] | ≤ 10 | – | –
19 | CCCC(CCC)C(=O)O [Valproic acid] | – | + | –
20 | COc1cc(/C=C/C(=O)CC(=O)/C=C/c2ccc(O)c(OC)c2)ccc1O [curcumin, Curcumin] | ≤ 10 | – | –
21 | CCCCCCCCCCCCCCCCOP(=O)([O-])OCC[N+](C)(C)C [miltefosine, Miltefosine] | ≤ 10 | – | –
22 | C[C@@H]1C[C@H]2O[C@@H]2/C=C\C=C\C(=O)Cc2c(Cl)c(O)cc(O)c2C(=O)O1 [radicicol, Radicicol] | ≤ 10 | + | –
23 | CO[C@H]1C[C@@H]2CC[C@@H](C)[C@@](O)(O2)C(=O)C(=O)N2CCCC[C@H]2C(=O)O[C@H]([C@H](C)C[C@@H]2CC[C@@H](O)[C@H](OC)C2)CC(=O)[C@H](C)/C=C(\C)[C@@H](O)[C@@H](OC)C(=O)[C@H](C)C[C@H](C)/C=C/C=C/C=C/1C [rapamycin, Rapamycin] | ≤ 10 | – | –
24 | CC1=C(/C=C/C(C)=C/C=C/C(C)=C/C(=O)O)C(C)(C)CCC1 [retinoic acid, 3,7-dimethyl-9-(2,6,6-trimethyl-1-cyclohexenyl)-nona-2,4,6,8-tetraenoic acid] | ≤ 10 | – | –
25 | Bleomycin | – | + | –
